Test results as given in PubChem BioAssay (NCI).
Several values for one entry are separate records, joined by “and”; a condition that tells them apart may be missing. Equal entries are not always repeated.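 Protocol summary: plate cells (96-well), add compound at 5 concentrations, incubate 48 h, interpolate endpoints linearly. GI50 marks 50% less growth. TGI is the concentration that stops growth completely.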

What was measured:
Test in all cases: growth of human tumour cells (NCI), 48 h
MOLT-4 leukemia = test system: MOLT-4 leukemia
HT29 colon = test system: HT29 colon
TK-10 renal = test system: TK-10 renal
HOP-62 NSCLC = test system: HOP-62 NSCLC
OVCAR-3 ovarian = test system: OVCAR-3 ovarian
HCT-116 colon = test system: HCT-116 colon
U251 CNS = test system: U251 CNS
CCRF-CEM leukemia = test system: CCRF-CEM leukemia
OVCAR-8 ovarian = test system: OVCAR-8 ovarian
M14 melanoma = test system: M14 melanoma

Row | Structure (SMILES) | TGI (MOLT-4 leukemia) | TGI (HT29 colon) | TGI (TK-10 renal) | TGI (HOP-62 NSCLC) | TGI (OVCAR-3 ovarian) | TGI (HCT-116 colon) | TGI (U251 CNS) | TGI (CCRF-CEM leukemia) | TGI (OVCAR-8 ovarian) | TGI (M14 melanoma) | GI50 (MOLT-4 leukemia) | GI50 (HT29 colon) | GI50 (TK-10 renal) | GI50 (HOP-62 NSCLC) | GI50 (OVCAR-3 ovarian) | GI50 (HCT-116 colon) | GI50 (U251 CNS) | GI50 (CCRF-CEM leukemia) | GI50 (OVCAR-8 ovarian) | GI50 (M14 melanoma)
1 | O=P(NC12CC3CC(CC(C3)C1)C2)(N1CC1)N1CC1 | > 43.2 µM | > 100 µM | > 100 µM | > 100 µM | > 100 µM | > 100 µM | > 100 µM | > 100 µM | > 100 µM | > 100 µM | – | – | – | – | – | – | – | – | – | –
2 | CN1CCN(c2ccc3nc(-c4c(N)c5c(F)cccc5[nH]c4=O)[nH]c3c2)CC1 | 3.6 µM and 1.52 µM and 4.54 µM | 2.89 µM and > 5.42 µM and 11.2 µM | 4.95 µM and > 4.67 µM and 16.8 µM | 2.7 µM and > 3.73 µM and 8.18 µM | 2.96 µM and > 8.27 µM and 8.9 µM | 1.93 µM and 4.35 µM and 2.4 µM | 2.45 µM and > 3.32 µM and 3.49 µM | 7.93 µM and > 5.89 µM and 9.41 µM | 3.21 µM and > 5.17 µM and 12.5 µM | 1.71 µM and 1.54 µM and 1.93 µM | 0.392 µM and 0.322 µM and 0.42 µM | 0.909 µM and 0.663 µM and 1.43 µM | 1.14 µM and 1.01 µM and 3.56 µM | 1.08 µM and 0.829 µM and 1.58 µM | 1.47 µM and 1.27 µM and 3.2 µM | 0.619 µM and 0.466 µM and 0.992 µM | 1.02 µM and 0.652 µM and 0.78 µM | 0.834 µM and 0.684 µM and 1.01 µM | 1.26 µM and 0.874 µM and 1.67 µM | 0.41 µM and 0.34 µM and 0.445 µM
3 | C=CC(C=O)C1(O)CCOC(=O)/C1=C\N (configuration not stated) | > 100 µM | > 100 µM | > 100 µM | > 100 µM | > 100 µM | > 100 µM | > 100 µM | > 100 µM | > 100 µM | > 100 µM | > 100 µM | > 100 µM | > 100 µM | > 100 µM | > 100 µM | > 100 µM | > 100 µM | > 100 µM | > 100 µM | > 100 µM
4 | O=C(CCCN1CCOCC1)Nc1ccc(Cn2nnc3c2C(=O)c2nnn(Cc4ccc(NC(=O)CCCN5CCOCC5)cc4)c2C3=O)cc1 | 4.85 µM | 8.9 µM | > 100 µM | > 100 µM | 1.54 µM | 11.3 µM | 3.74 µM | 6.32 µM | > 100 µM | 43.6 µM | 1.61 µM | 3.31 µM | > 100 µM | > 100 µM | 0.348 µM | 3 µM | 1.95 µM | 1.81 µM | 3.78 µM | 4.59 µM
5 | CN(N=O)C(=O)N[C@@H](C=O)[C@@H](O)[C@H](O)[C@H](O)CO | 574 µM and > 750 µM | > 750 µM | > 750 µM | > 750 µM | 670 µM | 653 µM and > 750 µM | 626 µM and > 750 µM | 522 µM and > 750 µM | > 750 µM | > 750 µM | > 750 µM | > 750 µM | – | > 750 µM | – | > 750 µM | > 750 µM | > 750 µM | > 750 µM | –
6 | O=C(Nc1ccc(Oc2ccc3nc(NC(=O)c4ccccc4)[nH]c3c2)cc1)Nc1cc(C(F)(F)F)ccc1F | 3.83 µM | > 25 µM | 22 µM | 6.65 µM | 6.12 µM | > 18.1 µM | 21.6 µM | > 9.17 µM | 5.08 µM | 9.29 µM | 0.68 µM | 1.38 µM | 2.61 µM | 0.871 µM | 1.04 µM | 1.09 µM | 1.28 µM | 0.657 µM | 0.764 µM | 0.997 µM
7 | COc1ccc2c(c1)C(=O)c1c-2c(Nc2ccc(C(C)=O)cc2)nc2ccccc12 | > 100 µM | > 100 µM | > 100 µM | 16.2 µM | > 100 µM | 19.2 µM | 40.6 µM | > 100 µM | 64.9 µM | > 100 µM | > 100 µM | 43.7 µM | 40.1 µM | 3.96 µM | > 100 µM | 4.17 µM | 13.5 µM | > 100 µM | 18 µM | 64.6 µM
8 | c1ccc(-c2cc(C3CO3)c3ccccc3n2)cc1 (configuration not stated) | 49.7 µM | 35.8 µM | 53.4 µM | 67.5 µM | 33.7 µM | 30.2 µM | 30 µM | > 100 µM | 43.2 µM | 34.2 µM | – | – | – | – | – | – | – | – | – | –
9 | O=C1OCCC1C(O)C1c2ccccc2-c2ccccc21 (configuration not stated) | > 100 µM | > 100 µM | > 100 µM | > 100 µM | > 100 µM | > 100 µM | > 100 µM | > 100 µM | > 100 µM | > 100 µM | – | – | – | – | – | – | – | – | – | –
10 | OCC1OC(OCC(O)C(O)C(O)C(/C=N/Nc2ccccc2)=N/Nc2ccccc2)C(O)C(O)C1O (configuration not stated) | > 100 µM | > 100 µM | > 100 µM | > 100 µM | > 100 µM | > 100 µM | > 100 µM | > 100 µM | > 100 µM | > 100 µM | – | – | – | – | – | – | – | – | – | –
11 | CN(C)c1ccc(/C=C(\C#N)c2nc3ccccc3n2C)cc1 | > 38 µM | > 33.3 µM | 67.9 µM | > 100 µM | 3.73 µM | > 100 µM | > 100 µM | 16 µM | > 72.9 µM | > 64.9 µM | 7.03 µM | 0.742 µM | 3.24 µM | 13.8 µM | 1.33 µM | 1.41 µM | 3.72 µM | 3.36 µM | 4.79 µM | 2.42 µM
12 | CC1(C)CCc2cc3c(cc2O1)OCC1c2cc4c(cc2OC31)OCO4 (configuration not stated) | > 100 µM | > 100 µM | > 100 µM | > 100 µM | > 100 µM | > 100 µM | > 100 µM | > 100 µM | > 100 µM | > 100 µM | – | – | – | – | – | – | – | – | – | –
13 | O=C1C2=Nc3ccccc3C(O)N2c2ccccc21 (configuration not stated) | > 100 µM | > 100 µM | > 100 µM | > 100 µM | 56.3 µM | > 100 µM | > 100 µM | > 100 µM | > 100 µM | > 100 µM | – | – | – | – | – | – | – | – | – | –
14 | O=C([O][Hg][CH2]C1COC([CH2][Hg][O]C(=O)c2ccccc2)CO1)c1ccccc1 (configuration not stated) | 6.5 µM and 6.83 µM | 30.5 µM and 3.26 µM | 19 µM and 3.33 µM | 37.9 µM and 56.4 µM | 21.9 µM | 14.7 µM and 2.68 µM | 10.8 µM and 27 µM | 3.64 µM | 25.4 µM and 4.42 µM | 19.8 µM and 4.89 µM | 2.18 µM and 1.41 µM | 15.7 µM and 1.7 µM | 10.5 µM and 1.85 µM | 19.2 µM and 20.7 µM | 7.93 µM | 4.24 µM and 1.39 µM | 4.46 µM and 13.5 µM | 0.958 µM and 1.17 µM | 10.7 µM and 1.92 µM | 8.68 µM and 2.52 µM
15 | Cc1ccc(Nc2n[nH]c(=S)s2)cc1 | > 100 µM | > 100 µM | > 100 µM | > 100 µM | > 100 µM | > 100 µM | > 100 µM | > 100 µM | > 100 µM | > 100 µM | – | – | – | – | – | – | – | – | – | –
16 | O=C(c1ccco1)c1nc2cc(F)ccc2[n+]([O-])c1C(F)(F)F | 66.3 µM | 79 µM | > 100 µM | > 100 µM | 46.7 µM | > 100 µM | > 100 µM | > 100 µM | 62 µM | 38.7 µM | 24.8 µM | 24 µM | 85.3 µM | 81.4 µM | 20.8 µM | 34 µM | 35.5 µM | 29.9 µM | 22.5 µM | 17.6 µM
17 | N#Cc1ccc(N2Cc3ccccc3OC3=C2C(=O)c2c(O)ccc(O)c2C3=O)cc1 | 0.76 µM | 0.875 µM | 0.265 µM | 4.99 µM | 0.433 µM | 0.35 µM | 1.71 µM | 0.391 µM | 2.5 µM | 0.496 µM | 0.102 µM | 0.258 µM | 0.118 µM | 1.29 µM | 0.153 µM | 0.102 µM | 0.514 µM | 0.0556 µM | 0.336 µM | 0.209 µM
18 | CCN1C(=O)NC(=O)C(C)(N2C(=O)c3c(F)c(F)c(F)c(F)c3C2=O)C1=O (configuration not stated) | 10.1 µM | 8.58 µM | 18.6 µM | 18.3 µM | 3.22 µM | 7.31 µM | 4.04 µM | 4.54 µM | 22.6 µM | 10.7 µM | 2.44 µM | 2.4 µM | 3.72 µM | 5.97 µM | 1.71 µM | 2.36 µM | 1.93 µM | 1.89 µM | 3.55 µM | 3.16 µM
19 | Cc1noc(C)c1-c1cc(O)cc(C(O)c2ccccc2)c1 (configuration not stated) | 80.7 µM | > 100 µM | > 100 µM | > 100 µM | > 100 µM | > 100 µM | > 100 µM | > 100 µM | > 100 µM | > 100 µM | 17.9 µM | 4.54 µM | 3.99 µM | 4.89 µM | 6.65 µM | 7.08 µM | 15 µM | 14.8 µM | 8.33 µM | 4.48 µM
20 | CC(C)(C)CC(C)(C)c1cc2c(O)c(c1)Cc1cc(C(C)(C)CC(C)(C)C)cc(c1O)Cc1cc(C(C)(C)CC(C)(C)C)cc(c1O)Cc1cc(C(C)(C)CC(C)(C)C)cc(c1O)Cc1cc(C(C)(C)CC(C)(C)C)cc(c1O)Cc1cc(C(C)(C)CC(C)(C)C)cc(c1O)C2 | > 100 µM | > 100 µM | > 100 µM | > 100 µM | > 100 µM | > 100 µM | > 100 µM | > 100 µM | > 100 µM | > 100 µM | – | – | – | – | – | – | – | – | – | –
